# Test results taken from patent publication US8735425B2, “Tetrahydroisoquinoline derivative” (Daiichi Sankyo Company, Limited, priority 2008, dated 2014).
# How the values were obtained:
# DGAT1 enzyme = molecular target: T1, DGAT1 enzyme (Homo sapiens, UniProt O75907); test: DGAT1 inhibitory activity test; format: biochemical; settings: test compound concentration of 0.05 μg/ml; read-out: Inhibitory Rate
# T1 construct: made in house
# T1 sequence (O75907 1-488): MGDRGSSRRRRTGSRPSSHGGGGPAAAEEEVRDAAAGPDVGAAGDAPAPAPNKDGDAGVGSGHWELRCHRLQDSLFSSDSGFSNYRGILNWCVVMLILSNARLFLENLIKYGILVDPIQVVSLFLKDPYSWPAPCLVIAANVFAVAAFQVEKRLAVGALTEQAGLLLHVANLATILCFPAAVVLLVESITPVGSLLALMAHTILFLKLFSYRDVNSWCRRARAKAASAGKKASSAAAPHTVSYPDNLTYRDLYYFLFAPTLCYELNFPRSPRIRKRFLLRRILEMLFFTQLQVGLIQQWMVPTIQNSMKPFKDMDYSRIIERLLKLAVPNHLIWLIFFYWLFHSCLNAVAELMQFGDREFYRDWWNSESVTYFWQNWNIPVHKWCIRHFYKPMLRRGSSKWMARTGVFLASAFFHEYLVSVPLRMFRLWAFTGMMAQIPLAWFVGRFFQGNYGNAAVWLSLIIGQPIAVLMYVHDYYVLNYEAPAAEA
# How it was run: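 Reaction at 23° C for 30 min in 175 mM Tris-HCl pH 8.0, 8 mM MgCl2, 1 mg/ml BSA, 0.5% Triton X-100 with 0.3 mM 1,2-dioleoyl-sn-glycerol and 10 μM [14C]-oleoyl-CoA. Triglyceride extracted into heptane, separated by TLC, radioactivity quantified; % inhibition versus vehicle control, 0-min background subtracted.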
# Male C57BL/6N mice = test: Triglyceride absorption suppression after fat loading (in vivo DGAT1 inhibitory effect); settings: Mus musculus, po; dose of 10 mg/kg or lower, orally administered, mice fasted overnight, plasma triglyceride after fat loading; read-out: Triglyceride absorption suppressive activity
# How it was run: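 Overnight-fasted male C57BL/6N mice dosed orally with compound (1 to 10 mg/kg in 0.5% methylcellulose), then given Pluronic-F127 1 g/kg i.p. and an oral 20% Intralipid load. Plasma triglyceride measured 1 to 4 h later. Absorption suppression (%) calculated against water-loaded and fat-loaded vehicle groups.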
SMILES,inhibition at 0.05 µg/mL (DGAT1 enzyme),inhibition in vivo at up to 10 mg/kg (Male C57BL/6N mice)
"O=C(O)C[C@H]1CC[C@H](OC(=O)N2CCc3cc(NC(=O)NC4CCCCC4)ccc3C2)CC1 [Example 84, trans-6-(3-cyclohexyl-ureido)-3,4-dihydro-1H-isoquinoline-2-carboxylic acid 4-carboxymethyl-cyclohexyl ester]",≥ 50%,≥ 60%
"CCOc1ccccc1NC(=O)Nc1ccc2c(c1)CCN(C(=O)O[C@H]1CC[C@H](CC(=O)O)CC1)C2 [Example 26, trans-6-[3-(2-ethoxy-phenyl)-ureido]-3,4-dihydro-1H-isoquinoline-2-carboxylic acid 4-carboxymethyl-cyclohexyl ester]",≥ 50%,≥ 60%
"O=C(O)CC1CCC(CC(=O)N2CCc3cc(NC(=O)Nc4ccccc4F)ccc3C2)CC1 (stereo not shown) [Example 17, [4-(2-{6-[3-(2-fluoro-phenyl)-ureido]-3,4-dihydro-1H-isoquinolin-2-yl}-2-oxoethyl)-cyclohexyl]-acetic acid]",≥ 50%,≥ 60%
"O=C(Nc1ccc2c(c1)CCN(C(=O)O[C@H]1CC[C@H](CC(=O)OC[C@@H](O)CO)CC1)C2)Nc1ccccc1F [Example 45, trans-6-[3-(2-fluoro-phenyl)-ureido]-3,4-dihydro-1H-isoquinoline-2-carboxylic acid 4-((S)-2,3-dihydroxy-propoxycarbonylmethyl)-cyclohexyl ester]",≥ 50%,≥ 60%
"C[C@H]1C[C@H](CC(=O)O)CC[C@H]1OC(=O)N1CCc2cc(NC(=O)Nc3ccccc3F)ccc2C1 (relative stereo) [Example 15, 6-[3-(2-fluoro-phenyl)-ureido]-3,4-dihydro-1H-isoquinoline-2-carboxylic acid t-4-carboxymethyl-c-2-methyl-r-1-cyclohexyl ester]",≥ 50%,≥ 60%
"CCOc1ccc(C)cc1NC(=O)Nc1ccc2c(c1)CCN(C(=O)O[C@H]1CC[C@H](CC(=O)O)CC1)C2 [Example 48, trans-6-[3-(2-ethoxy-5-methyl-phenyl)-ureido]-3,4-dihydro-1H-isoquinoline-2-carboxylic acid 4-carboxymethyl-cyclohexyl ester]",≥ 50%,≥ 60%
"COc1ncccc1NC(=O)Nc1ccc2c(c1)CCN(C(=O)O[C@H]1CC[C@H](CC(=O)O)CC1)C2 [Example 24, trans-6-[3-(2-methoxy-pyridin-3-yl)-ureido]-3,4-dihydro-1H-isoquinoline-2-carboxylic acid 4-carboxymethyl-cyclohexyl ester]",≥ 50%,≥ 60%
"CCOc1cccc(NC(=O)Nc2ccc3c(c2)CCN(C(=O)O[C@H]2CC[C@H](CC(=O)O)CC2)C3)c1C [Example 53, trans-6-[3-(3-ethoxy-2-methyl-phenyl)-ureido]-3,4-dihydro-1H-isoquinoline-2-carboxylic acid 4-carboxymethyl-cyclohexyl ester]",≥ 50%,≥ 60%
"O=C(Nc1ccc2c(c1)CCN(C(=O)O[C@H]1CC[C@H](Cc3noc(=O)[nH]3)CC1)C2)Nc1ccccc1F [Example 41, trans-6-[3-(2-fluoro-phenyl)-ureido]-3,4-dihydro-1H-isoquinoline-2-carboxylic acid 4-(5-oxo-4,5-dihydro-[1,2,4]oxadiazol-3-ylmethyl)-cyclohexyl ester]",≥ 50%,≥ 60%
"O=C(Nc1ccc2c(c1)CCN(C(=O)O[C@H]1CC[C@H](Cc3nn[nH]n3)CC1)C2)Nc1ccccc1F [Example 44, trans-6-[3-(2-fluoro-phenyl)-ureido]-3,4-dihydro-1H-isoquinoline-2-carboxylic acid 4-(2H-tetrazol-5-ylmethyl)-cyclohexyl ester]",≥ 50%,≥ 60%
"O=C(O)C[C@H]1CC[C@H](OC(=O)N2CCc3cc(NC(=O)NC45CC6CC(CC(C6)C4)C5)ccc3C2)CC1 [Example 86, trans-6-(3-adamantan-1-yl-ureido)-3,4-dihydro-1H-isoquinoline-2-carboxylic acid 4-carboxymethyl-cyclohexyl ester]",≥ 50%,≥ 60%
"O=C(O)C[C@H]1CC[C@H](OC(=O)N2CCc3cc(NC(=O)Nc4cccc(OC(F)(F)F)c4)ccc3C2)CC1 [Example 52, trans-6-[3-(3-trifluoromethoxy-phenyl)-ureido]-3,4-dihydro-1H-isoquinoline-2-carboxylic acid 4-carboxymethyl-cyclohexyl ester]",≥ 50%,≥ 60%
"CCOc1ccc(F)cc1NC(=O)Nc1ccc2c(c1)CCN(C(=O)O[C@H]1CC[C@H](CC(=O)O)CC1)C2 [Example 27, trans-6-[3-(2-ethoxy-5-fluoro-phenyl)-ureido]-3,4-dihydro-1H-isoquinoline-2-carboxylic acid 4-carboxymethyl-cyclohexyl ester]",≥ 50%,≥ 60%

# Further lines, with some results ahead:
inhibition at 0.05 µg/mL (DGAT1 enzyme),SMILES,inhibition in vivo at up to 10 mg/kg (Male C57BL/6N mice)
≥ 50%,"CCOc1cc(NC(=O)Nc2ccc3c(c2)CCN(C(=O)O[C@H]2CC[C@H](CC(=O)O)CC2)C3)ccc1F [Example 59, trans-6-[3-(3-ethoxy-4-fluoro-phenyl)-ureido]-3,4-dihydro-1H-isoquinoline-2-carboxylic acid 4-carboxymethyl-cyclohexyl ester]",≥ 60%
≥ 50%,"O=C(O)C[C@H]1CC[C@H](OC(=O)N2CCc3cc(NC(=O)Nc4ccc(F)c(F)c4)ccc3C2)CC1 [Example 57, trans-6-[3-(3,4-difluoro-phenyl)-ureido]-3,4-dihydro-1H-isoquinoline-2-carboxylic acid 4-carboxymethyl-cyclohexyl ester]",≥ 60%
≥ 50%,"CC(C)c1cccc(NC(=O)Nc2ccc3c(c2)CCN(C(=O)O[C@H]2CC[C@H](CC(=O)O)CC2)C3)c1 [Example 29, trans-6-[3-(3-isopropyl-phenyl)-ureido]-3,4-dihydro-1H-isoquinoline-2-carboxylic acid 4-carboxymethyl-cyclohexyl ester]",≥ 60%
≥ 50%,"Cc1ccc(NC(=O)Nc2ccc3c(c2)CCN(C(=O)O[C@H]2CC[C@H](CC(=O)O)CC2)C3)cc1 [Example 71, trans-6-(3-p-tolyl-ureido)-3,4-dihydro-1H-isoquinoline-2-carboxylic acid 4-carboxymethyl-cyclohexyl ester]",≥ 60%
≥ 50%,"CC(C)Oc1cccc(NC(=O)Nc2ccc3c(c2)CCN(C(=O)O[C@H]2CC[C@H](CC(=O)O)CC2)C3)c1 [Example 30, trans-6-[3-(3-isopropoxy-phenyl)-ureido]-3,4-dihydro-1H-isoquinoline-2-carboxylic acid 4-carboxymethyl-cyclohexyl ester]",≥ 60%
≥ 50%,"CN(C)c1cccc(NC(=O)Nc2ccc3c(c2)CCN(C(=O)O[C@H]2CC[C@H](CC(=O)O)CC2)C3)c1 [Example 75, trans-6-[3-(3-dimethylamino-phenyl)-ureido]-3,4-dihydro-1H-isoquinoline-2-carboxylic acid 4-carboxymethyl-cyclohexyl ester]",≥ 60%
≥ 50%,"CSc1ccc(NC(=O)Nc2ccc3c(c2)CCN(C(=O)O[C@H]2CC[C@H](CC(=O)O)CC2)C3)cc1 [Example 62, trans-6-[3-(4-methylsulfanyl-phenyl)-ureido]-3,4-dihydro-1H-isoquinoline-2-carboxylic acid 4-carboxymethyl-cyclohexyl ester]",≥ 60%
≥ 50%,"Cc1cccc(NC(=O)Nc2ccc3c(c2)CCN(C(=O)O[C@H]2CC[C@H](CC(=O)O)CC2)C3)c1 [Example 68, trans-6-(3-m-tolyl-ureido)-3,4-dihydro-1H-isoquinoline-2-carboxylic acid 4-carboxymethyl-cyclohexyl ester]",≥ 60%
≥ 50%,"CC(C)c1ccccc1NC(=O)Nc1ccc2c(c1)CCN(C(=O)O[C@H]1CC[C@H](CC(=O)O)CC1)C2 [Example 28, trans-6-[3-(2-isopropyl-phenyl)-ureido]-3,4-dihydro-1H-isoquinoline-2-carboxylic acid 4-carboxymethyl-cyclohexyl ester]",≥ 60%
≥ 50%,"CSc1cccc(NC(=O)Nc2ccc3c(c2)CCN(C(=O)O[C@H]2CC[C@H](CC(=O)O)CC2)C3)c1 [Example 64, trans-6-[3-(3-methylsulfanyl-phenyl)-ureido]-3,4-dihydro-1H-isoquinoline-2-carboxylic acid 4-carboxymethyl-cyclohexyl ester]",≥ 60%
